# Values of other authors as cited in patent US9301906B2, “Dentrifice composition” (Kao Corporation, priority 2011, dated 2016).
row,Compound,solubility in 100 g of an aqueous solution at 20° C.
1,OC[C@@H](O)[C@@H](O)CO [erythritol],36 g in 100 g of an aqueous solution
2,OC[C@@H](O)[C@@H](O[C@H]1O[C@H](CO)[C@@H](O)[C@H](O)[C@H]1O)[C@H](O)[C@@H](O)CO [maltitol],60 g in 100 g of an aqueous solution
3,OC[C@@H](O)[C@@H](O)[C@H](O)[C@H](O)CO [mannitol],18 g in 100 g of an aqueous solution
4,OC[C@@H](O)[C@@H](O)[C@H](O)[C@@H](O)CO [sorbitol],72 g in 100 g of an aqueous solution
5,OC[C@@H](O)[C@H](O)[C@@H](O)CO [xylitol],66 g in 100 g of an aqueous solution
